PubChem BioAssay (NCI)
Where “and” joins values, the source holds several entries; their conditions need not be identical. Equal values may be shown once.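 How tested: cells in 96-well plates exposed to compound for 48 hours at five concentrations. The concentration for 50% growth inhibition is given as GI50. At the TGI there is no net growth.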

What was measured:
Assay in all cases: NCI-60 cell line screen, 48 h
BT-549 breast = tested on: BT-549 breast
HOP-92 NSCLC = tested on: HOP-92 NSCLC
NCI-H23 lung = tested on: NCI-H23 lung
PC-3 prostate = tested on: PC-3 prostate
SK-MEL-5 melanoma = tested on: SK-MEL-5 melanoma
SK-OV-3 ovarian = tested on: SK-OV-3 ovarian
SN12C renal = tested on: SN12C renal
SR leukemia = tested on: SR leukemia
TK-10 renal = tested on: TK-10 renal
UO-31 renal = tested on: UO-31 renal

SMILES | GI50 (BT-549 breast) [µM] | TGI (BT-549 breast) [µM] | GI50 (HOP-92 NSCLC) [µM] | TGI (HOP-92 NSCLC) | GI50 (NCI-H23 lung) [µM] | TGI (NCI-H23 lung) | GI50 (PC-3 prostate) [µM] | TGI (PC-3 prostate) [µM] | GI50 (SK-MEL-5 melanoma) [µM] | TGI (SK-MEL-5 melanoma) | GI50 (SK-OV-3 ovarian) [µM] | TGI (SK-OV-3 ovarian) | GI50 (SN12C renal) [µM] | TGI (SN12C renal) | GI50 (SR leukemia) [µM] | TGI (SR leukemia) [µM] | GI50 (TK-10 renal) [µM] | TGI (TK-10 renal) [µM] | GI50 (UO-31 renal) [µM] | TGI (UO-31 renal)
COc1cc(C2CC(c3ccccc3)=NN2C(C)=O)cc(OC)c1OC (stereo not drawn) | 6.37 | > 100 | 32.9 | > 100 µM | 5.91 | > 100 µM | 3.97 | > 100 | 2.87 | > 100 µM | 3.91 | > 100 µM | 5.23 | > 100 µM | 0.996 | > 100 | > 46.9 | > 100 | 7.09 | > 100 µM
Cc1ccc(-c2nc(N)c(C#N)c3c2CCOc2c-3ccc3ccccc23)cc1 | 3.85 | 54 | 0.334 | 7.44 µM | 0.521 | 66.7 µM | 0.186 | 7.51 | 0.0819 | 1.14 µM | 3.42 | – | 12.3 | 53.9 µM | 0.0882 | > 100 | 0.469 | 13.6 | 4.14 | > 100 µM
O=C(Cc1ccccc1)NC(c1ccc(Cl)cc1)c1c(O)ccc2ccccc12 (stereo not drawn) | 3.8 | 12.8 | 2.77 | 7.24 µM | 2.92 | 9.2 µM | 3.19 | 10.6 | 1.73 | 3.2 µM | 3.01 | 9.26 µM | 2.99 | 11.5 µM | 2.56 | 10.1 | 4.17 | 13.2 | 2.41 | 8.93 µM
O=C(NCCNc1nccc(-c2c(-c3ccc(F)cc3)nc3sccn23)n1)c1ccccc1 | 14.3 | 34 | 14.8 | 68.2 µM | 10.9 | 45.1 µM | 10.8 | 89.2 | 1.66 | 13.3 µM | 12.5 | 53.8 µM | 6.52 | 48.4 µM | 16.7 | 47.3 | 15.8 | 48.7 | 1.75 | 18.5 µM
CS(=O)(=O)c1ccc(Oc2cc(F)cc(C#N)c2)c2c1[C@H](O)C(F)(F)C2 | > 100 | > 100 | > 100 | > 100 µM | > 100 | > 100 µM | > 100 | > 100 | > 100 | > 100 µM | > 100 | > 100 µM | > 100 | > 100 µM | > 100 | > 100 | > 100 | > 100 | > 100 | > 100 µM
O=C1/C(=C/c2ccccc2F)CN(C(=O)C(Cl)Cl)C/C1=C\c1ccccc1F | 0.422 | 1.44 | 1.53 | 3.39 µM | 0.389 | 1.56 µM | 0.296 | 1.08 | 0.533 | 1.64 µM | 1.65 | 3.28 µM | 0.244 | 0.691 µM | 0.0665 | – | 1.61 | 3.02 | 0.44 | 1.67 µM
COc1nc(N)nc2c1ncn2[C@@H]1O[C@H](CO)[C@@H](O)[C@@H]1O | > 100 | > 100 | > 100 | > 100 µM | > 100 | > 100 µM | > 100 | > 100 | > 100 | > 100 µM | > 100 | > 100 µM | > 100 | > 100 µM | > 100 | > 100 | > 100 | > 100 | > 100 | > 100 µM
COc1cc(/C=C2\C(=O)N(c3ccccc3)c3ccccc32)cc(OC)c1OC | 15.5 | 47.4 | 3.71 | 20.7 µM | 9.79 | 30.1 µM | 3.13 | 16.1 | 7.29 | 26.7 µM | 18.4 | 43.8 µM | 5.4 | 24.7 µM | 2.1 | 10.4 | 16.3 | 37.3 | 13.7 | 31.3 µM
COC1=CC(c2ccc[nH]2)=N/C1=C\c1[nH]c(C)c(C(C)=O)c1C | 0.222 | > 100 | 0.671 | 5.13 µM | 5.12 | > 100 µM | 0.302 | > 100 | 0.768 | 3.07 µM | > 25.9 | > 100 µM | 4.46 | > 100 µM | – | 0.379 | 1.06 | > 63.5 | 0.226 | 0.641 µM
Clc1ccc(C2=NN[C@H](c3cn(-c4ccccc4)nc3-c3ccccc3)C2)cc1 | 10.3 | 28.4 | 2.24 | 6.88 µM | 5.27 | 23.4 µM | 3.68 | 14.6 | 19 | > 100 µM | 2.74 | 8.75 µM | 3.61 | 17.2 µM | 11.4 | > 100 | 5.87 | 18.6 | 12.8 | > 100 µM
COc1ccc2c(c1)/C(=C\c1c(Cl)n(C)c3ccccc13)C(=O)N2 | 1.29 | 16.4 | 5.5 | 29.4 µM | 1.99 | 11.4 µM | 1.33 | > 36.8 | 0.76 | 7 µM | 0.86 | 14.5 µM | 2.57 | 20.1 µM | 0.157 | 0.605 | 9.26 | 34.2 | 3.71 | 20.6 µM
COc1cccc(Cn2c(-c3nonc3NC(C)=O)nc3ccccc32)c1 | 8.79 | > 100 | 2.16 | 17.6 µM | 6.42 | > 100 µM | 2.83 | > 100 | 3.76 | > 100 µM | 3.07 | > 100 µM | 5.48 | > 100 µM | 4.14 | > 100 | 2.65 | 40.8 | 3.72 | > 100 µM
Cc1cc2cc3cc(C)c(N)cc3[n+](C)c2cc1N | 2.34 | 9.31 | 1.44 | 5.99 µM | 1.09 | 5.11 µM | 1.7 | 10.3 | 0.762 | 2.08 µM | 2.09 | 11 µM | 0.334 | 10.2 µM | 1.99 | 8.17 | 4.06 | 12.7 | 2.16 | 11.6 µM
OCC1OC(n2cnc3c2NC=NC[C@H]3O)CC1O (stereo partly drawn) | – | > 500 | > 588 | 454 µM and > 588 µM | > 588 | 500 µM and > 588 µM | – | > 500 | > 588 | 499 µM and > 588 µM | > 588 | 474 µM and > 588 µM | > 588 | 500 µM and > 588 µM | – | 443 | – | > 500 | > 588 | 500 µM and > 588 µM
Brc1ccccc1C=NC12CC3CC(CC(C3)C1)C2 | – | > 100 | – | > 100 µM | – | > 100 µM | – | > 100 | – | > 100 µM | – | > 100 µM | – | > 63.1 µM | – | > 28.2 | – | > 100 | – | > 100 µM
Cc1nn(-c2ccccc2)c2nc3c(nc12)C1=NCCN1C(c1ccc(Cl)cc1)N3 (stereo not drawn) | 12.6 | 27.1 | 2 | 9.69 µM | 15.3 | 31.6 µM | 4.33 | 18.3 | 1.57 | 3.12 µM | 7.9 | 19.4 µM | 11.4 | 25.2 µM | 2.48 | 6.32 | 2.93 | 7.18 | 7.84 | 21.5 µM
CC1OC(n2c3ccccc3c3c4c(c5c6ccccc6[nH]c5c32)C(=O)N(CCN2CCOCC2)C4=O)CC(O)C1O (stereo not drawn) | 2.83 | 12.1 | 7.77 | 15.8 µM | 2 | 11.1 µM | 3.55 | 11.4 | 1.59 | 6.29 µM | 2.29 | 9.77 µM | 1.75 | 7.47 µM | 0.257 | 14.5 | 6.33 | 13.8 | 1.96 | 10.8 µM
Cn1ccnc1C(=O)/C=C/c1ccc(CC(=O)Nc2ccc(F)cc2)cc1 | 1.32 | 6.01 | 4.51 | 13 µM | 3.04 | 8.56 µM | 1.99 | 7.96 | 4.45 | 8.09 µM | 9.81 | > 25 µM | 1.62 | 6.26 µM | 0.517 | > 25 | 10.5 | > 25 | 1.72 | 5.16 µM
Nc1ccc(-c2nc3ccccc3o2)cc1S | 23.6 | 49.8 | 18.8 | 42.3 µM | 14.5 | 35.6 µM | 6.96 | 22.5 | 12.5 | 25.1 µM | 23.2 | 65.1 µM | 13.2 | 27.5 µM | 10.5 | 64 | 11.6 | 29 | 19.5 | 50.6 µM
CC(C)n1c(=O)n(C)c2cnc3cc(F)c(-c4ccc(OCCCN5CCCCC5)nc4)cc3c21 | 10.1 | 28.4 | 1.2 | 9.36 µM | 16.5 | > 100 µM | 6.94 | 37.1 | 6.41 | 19.1 µM | 10.8 | 73.8 µM | 7.14 | 42.8 µM | 5.76 | 32.2 | 11.3 | 45.4 | 3.74 | 16.2 µM
CCC(c1ccc2cc(O)ccc2c1)C(C)(C)C(=O)O (stereo not drawn) | – | > 100 | – | > 100 µM | – | > 100 µM | – | > 100 | – | > 100 µM | – | > 100 µM | – | > 100 µM | – | > 100 | – | > 100 | – | > 100 µM
CCCC(=O)Nc1ccc2c(c1)CN1C(=O)c3ccccc3C1=N2 | – | > 100 | – | > 100 µM | – | > 100 µM | – | > 100 | – | > 100 µM | – | > 100 µM | – | > 100 µM | – | > 100 | – | > 100 | – | > 100 µM
COc1ccc(CCN2CCC(Nc3nc4ccccc4n3Cc3ccc(F)cc3)CC2)cc1 | 1.6 | 2.96 | 0.406 | 2.29 µM | 1.69 | 3.5 µM | 1.8 | 5.66 | 1.32 | 2.6 µM | 1.9 | 3.44 µM | 1.51 | 2.96 µM | 1.58 | 3.83 | 1.82 | 3.38 | 1.29 | 2.62 µM
Cc1[nH]nc2ccc3nc(-c4ccc5[nH]ncc5c4)c4c(c3c12)CCCC4 | 1.1 | 8.8 | 1.91 | 6 µM | 2.22 | 11.2 µM | 2.86 | 23.6 | 1.92 | 5 µM | 0.243 | 0.94 µM | 2.09 | 12.7 µM | 0.525 | 25.7 | 1.12 | 20 | 0.802 | 5.99 µM
O=C(CN1C(=O)S/C(=C\C(Cl)=C\c2ccccc2)C1=O)NCCc1ccc(O)cc1 | 2.03 | 4.9 | 1.58 | 5.05 µM | 2.29 | 6.15 µM | 1.96 | 5.12 | 1.8 | 3.4 µM | 3.48 | > 100 µM | 2.34 | 9.79 µM | 0.955 | > 100 | 2.42 | 5.02 | 1.64 | 3.31 µM
O=C(O)CP(=O)(O)O | – | > 100 | – | > 100 µM | – | > 100 µM | – | > 100 | – | > 100 µM | – | > 100 µM | – | > 100 µM | – | > 100 | – | > 100 | – | > 100 µM
